These results are taken from EPA's ToxRefDB 2.

Broadly, the LOAEL is the lowest dose or exposure tested at which an adverse effect was seen. As a reminder, the NOAEL is the highest tested level that showed no adverse finding.

Data set [1] concerns rat. To be noted: Subchronic oral toxicity in rodents, sprague dawley, Feed, dose end: 13 week, group: systemic.
In data set [2] the test system is rat. To be noted: Sub-acute repeat dose toxicity; wistar; Oral; Feed; dose end: 21 day; group: systemic; systemic / clinical chemistry / [other] / [other] + systemic / clinical chemistry / 5' nucleotidase / 5' nucleotidase + systemic / organ ….
Data set [3] concerns rat. Particulars: Prenatal developmental toxicity study, sprague dawley, Oral, Gavage/Intubation, dose end: 20 GD.
Data set [4] deals with rat. Particulars: Developmental neurotoxicity study; sprague dawley; Injection; Intraperitoneal; dose end: 74 PND; group: cannot be grouped; reproductive / reproductive performance / aborted / aborted + developmental / offspring survival late / [other] / [other] + systemic / in ….
The subject of data set [5] is dog. Particulars: Subchronic oral toxicity in nonrodent, beagle, Feed, dose end: 6 month, group: systemic, systemic / clinical chemistry / alkaline phosphatase (alp/alk) / alkaline phosphatase (alp/alk) + systemic / organ weight / liver / absolute….
Data set [6] relates to rat. To be noted: Subchronic oral toxicity in rodents, Feed, dose end: 90 day, group: systemic.
Data set [7] has as its system rat. Particulars: Prenatal developmental toxicity study, other, Oral, Gavage/Intubation, dose end: 15 GD.
Data set [8] has as its system mouse. To be noted: Subchronic oral toxicity in rodents, Feed, dose end: 90 day, group: systemic.
The test system of data set [9] is mouse. To be noted: Carcinogenicity; other; Oral; Feed; dose end: 104 week; group: systemic; systemic / pathology microscopic / liver / vacuolization.
The subject of data set [10] is dog. Particulars: Chronic toxicity, beagle, Oral, Feed, dose end: 6 month, group: systemic.
The test system of data set [11] is rat. Particulars: Combined chronic toxicity/carcinogenicity, sprague dawley, Oral, Feed, dose end: 105 week, group: systemic.
Data set [12] relates to rat. To be noted: Subchronic oral toxicity in rodents, sprague dawley, Feed, dose end: 3 month, group: systemic, systemic / in life observation / body weight / body weight + systemic / in life observation / body weight / body weight gain.
Data set [13] relates to rat. Particulars: Subchronic oral toxicity in rodents, sprague dawley, Feed, dose end: 13 week, group: systemic, systemic / in life observation / body weight / body weight + systemic / in life observation / body weight / body weight gain + systemic / in….
Data set [14] relates to dog. To be noted: Subchronic oral toxicity in nonrodent, beagle, Feed, dose end: 16 week, group: systemic, systemic / in life observation / body weight / body weight.
The mark [15] stands for this setting: systemic / in life observation / body weight / body weight gain + systemic / in life observation / food consumption / food efficiency + ….
The mark [16] stands for this setting: group: developmental, developmental / developmental malformation / bone / delayed ossification + developmental / developmental malformation / bone / supernumerary….
Setting [17] is: group: maternal, reproductive / reproductive performance / postimplantation loss / postimplantation loss + reproductive / reproductive performance / ….
The mark [18] stands for this setting: group: maternal, systemic / clinical chemistry / [other] / [other] + systemic / organ weight / liver / absolute + systemic / organ weight / liver / relative ….
Setting [19] is: systemic / organ weight / liver / absolute + systemic / organ weight / liver / relative to body weight.
Where [20] appears, read: systemic / organ weight / liver / absolute + systemic / organ weight / liver / relative to body weight + systemic / pathology microscopic / ….
The mark [21] stands for this setting: group: developmental, developmental / developmental malformation / bone / absent + developmental / developmental malformation / bone / incomplete ossification + ….
The mark [22] stands for this setting: group: maternal, systemic / in life observation / clinical signs / convulsions + systemic / in life observation / clinical signs / fur (altered appearance….
Setting [23] is: systemic / organ weight / liver / absolute + systemic / organ weight / liver / relative to body weight + systemic / clinical chemistry / ….
The mark [24] stands for this setting: systemic / clinical chemistry / alkaline phosphatase (alp/alk) / alkaline phosphatase (alp/alk) + systemic / hematology / erythrocyte (rbc) ….
Where [25] appears, read: systemic / pathology microscopic / liver / vacuolization.
Setting [26] is: systemic / pathology microscopic / liver / vacuolization + systemic / organ weight / liver / absolute + systemic / organ weight / liver / ….

In the case of `Cn1sc2c(c1=O)CCC2` [2-Methyl-5,6-dihydro-2H-cyclopenta[d][1,2]thiazol-3(4H)-one], in the data set on rat [1] (systemic / in life observation / body weight / body weight gain + systemic / in life observation / food consumption / food efficiency), the LOAEL amounted to 23.2 mg/kg/day. Besides, in the data set on rat [1] (setting [15]), the LEL came out at 23.2 mg/kg/day, the NEL was 4.6 mg/kg/day and the NOAEL is 4.6 mg/kg/day.
Take `CCCCCCOC(=O)c1ccccc1C(=O)OCCCCCC` [Dihexyl phthalate]: in the data set with rat [2], the LEL worked out at 1000 mg/kg/day, the lowest observed adverse effect level (LOAEL) was over 1000 mg/kg/day, the NEL is under 1000 mg/kg/day and the NOAEL was at least 1000 mg/kg/day. For the same compound, in the data set on rat [3] (setting [16]), the LEL is 250 mg/kg/day, the LOAEL stood at 250 mg/kg/day, the NEL was under 250 mg/kg/day and the no-observed-adverse-effect level (NOAEL) is under 250 mg/kg/day. Moreover, in the data set on rat [3] (setting [17]), the LOAEL is over 750 mg/kg/day and the no-observed-adverse-effect level (NOAEL) is at least 750 mg/kg/day. In addition, in the data set on rat [3] (setting [18]), the LEL came out at 250 mg/kg/day and the NEL was under 250 mg/kg/day.
Consider `NC(=O)NO` [Hydroxyurea], for which, in the data set with rat [4], the LEL stood at 2000 mg/kg/day, the lowest observed adverse effect level (LOAEL) was over 2000 mg/kg/day, the NEL is under 2000 mg/kg/day and the NOAEL was at least 2000 mg/kg/day.
On to `COCC(=O)N(c1c(C)cccc1C)C(C)C(=O)OC` (centres undefined) [Metalaxyl], for which the LEL in the data set on dog [5] was found to be 30.6 mg/kg/day; with rat [6] (setting [19]), 2.5 mg/kg/day; with rat [7] (setting [21]), 400 mg/kg/day; with rat [7] (setting [22]), 250 mg/kg/day; in the data set on mouse [8] (setting [19]), 188 mg/kg/day; in the data set with mouse [9], 129 mg/kg/day. Also, the LEL in the data set with dog [10] (setting [24]) stood at 30.6 mg/kg/day; in the data set on rat [11] (setting [25]), 1.88 mg/kg/day. Also, the LOAEL in the data set on dog [5] was 30.6 mg/kg/day; in the data set with rat [6] (setting [20]) it was over 62.5 mg/kg/day; in the data set with rat [7] (setting [21]) it was 400 mg/kg/day; with rat [7] (setting [22]), 250 mg/kg/day; in the data set on mouse [8] (setting [23]), over 750 mg/kg/day; in the data set on mouse [9] it was 129 mg/kg/day. Further, the LOAEL in the data set on dog [10] (systemic / clinical chemistry / alkaline phosphatase (alp/alk) / alkaline phosphatase (alp/alk)) is 30.6 mg/kg/day; in the data set with rat [11] (setting [26]), 46.6 mg/kg/day. In addition, the NEL in the data set on dog [5] is 7.8 mg/kg/day; in the data set on rat [6] (setting [19]), under 2.5 mg/kg/day; in the data set on rat [7] (setting [21]), 250 mg/kg/day; with rat [7] (setting [22]), 50 mg/kg/day; with mouse [8] (setting [19]), under 188 mg/kg/day; with mouse [9], 24.9 mg/kg/day. Besides, the NEL in the data set on dog [10] (setting [24]) was 7.8 mg/kg/day; in the data set with rat [11] (setting [25]), under 1.88 mg/kg/day. Moreover, the NOAEL in the data set on dog [5] is 7.8 mg/kg/day; with rat [6] (setting [20]), at least 62.5 mg/kg/day; with rat [7] (setting [21]), 250 mg/kg/day; in the data set on rat [7] (setting [22]) it was 50 mg/kg/day; in the data set with mouse [8] (setting [23]) it was at least 750 mg/kg/day; in the data set on mouse [9], 24.9 mg/kg/day. Further, the no-observed-adverse-effect level (NOAEL) in the data set on dog [10] (setting [24]) turned out to be 7.8 mg/kg/day; with rat [11] (setting [26]), 9.43 mg/kg/day.
In the case of `CCc1cccc(C)c1N(C(=O)CCl)[C@@H](C)COC` [S-Metolachlor], in the data set on rat [12], the LEL was 259 mg/kg/day, the LOAEL was 259 mg/kg/day, the NEL was determined as 23.4 mg/kg/day and the NOAEL worked out at 23.4 mg/kg/day. Besides, in the data set with rat [13], the LEL worked out at 150 mg/kg/day, the lowest-observed-adverse-effect level (LOAEL) was 150 mg/kg/day, the NEL came out at 15 mg/kg/day and the NOAEL is 15 mg/kg/day. Further, in the data set with dog [14], the LEL was determined as 31.1 mg/kg/day, the lowest observed adverse effect level (LOAEL) was over 62 mg/kg/day, the NEL was found to be 15.1 mg/kg/day and the NOAEL was at least 62 mg/kg/day.
